Laboratory results as given in patent publication US10105349B2, “Organic compounds” (INTRA-CELLULAR THERAPIES, INC., priority 2014, dated 2018).
pIC50: −log10 of the molar value. Like-named read-outs stand apart in the source and are kept apart here.

What was measured:
[1] = published standard, 10 mg/kg PO; cited from earlier work
r-hPDE2A = r-hPDE2A (Homo sapiens (Human), UniProt O00408); assay: Measurement of PDE2 inhibition in vitro (IMAP fluorescence polarization); format: biochemical; conditions: FL-cAMP substrate, buffer supplemented with 1 μM cGMP
Sequence of r-hPDE2A (O00408 whole entry): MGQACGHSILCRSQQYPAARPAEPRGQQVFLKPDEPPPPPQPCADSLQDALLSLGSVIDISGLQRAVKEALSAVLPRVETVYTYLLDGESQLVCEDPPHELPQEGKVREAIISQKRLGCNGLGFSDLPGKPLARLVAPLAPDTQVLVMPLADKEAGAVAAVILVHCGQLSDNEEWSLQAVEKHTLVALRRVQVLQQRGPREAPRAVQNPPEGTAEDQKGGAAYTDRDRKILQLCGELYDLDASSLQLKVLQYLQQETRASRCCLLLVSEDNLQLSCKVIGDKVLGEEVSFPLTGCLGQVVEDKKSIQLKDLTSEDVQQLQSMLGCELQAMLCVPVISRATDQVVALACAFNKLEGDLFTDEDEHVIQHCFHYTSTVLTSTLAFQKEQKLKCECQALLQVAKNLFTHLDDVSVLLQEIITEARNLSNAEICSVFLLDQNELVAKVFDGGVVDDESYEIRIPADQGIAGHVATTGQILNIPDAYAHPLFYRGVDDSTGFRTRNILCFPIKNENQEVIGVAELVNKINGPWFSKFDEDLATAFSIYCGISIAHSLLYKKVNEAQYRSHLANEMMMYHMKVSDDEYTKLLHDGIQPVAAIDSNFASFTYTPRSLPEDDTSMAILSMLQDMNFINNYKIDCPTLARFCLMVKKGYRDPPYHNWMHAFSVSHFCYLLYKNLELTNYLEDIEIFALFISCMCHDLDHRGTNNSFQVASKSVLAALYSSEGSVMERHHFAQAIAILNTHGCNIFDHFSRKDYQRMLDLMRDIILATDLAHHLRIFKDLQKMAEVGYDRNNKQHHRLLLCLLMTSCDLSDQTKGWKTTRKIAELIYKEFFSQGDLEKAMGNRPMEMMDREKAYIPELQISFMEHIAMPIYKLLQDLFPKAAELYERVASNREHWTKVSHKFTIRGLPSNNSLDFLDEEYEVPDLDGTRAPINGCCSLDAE
Experimental: Measurement of PDE2 Inhibition In Vitro
r-hPDE2A (Accession No. NM_002599, Homo sapiens phosphodiesterase 2A, cGMP-stimulated, transcript variant 1) A mammalian expression cloning vector with recombinant cDNA copy of the gene is purchased from Origene. Protein is expressed via transient transfection of HEK293 cells. The cells are harvested at 48 hours after transfection, washed once with TBS buffer (50 mM Tris-HCl, pH 7.5, 150 mM NaCl), then lysed by sonication in cold homogenization buffer (50 mM Tris-HCl, pH 7.5, 5 mM MgCl2, 1× protease inhibitor cocktail). The homogenate is centrifuged for 30 min at 15,000 g at 4° C. to obtain the soluble cytosolic fraction. The protein concentration of the cytosol is determined using BCA Protein Assay Kit (Pierce) with bovine serum albumin as a standard.
Assay: PDE2A is assayed with FL-cAMP as substrate. An enzyme titration is first performed to determine the working concentration of PDE. The concentration of the enzyme giving activity of 100 ΔmP in the absence of inhibitor is deemed an appropriate working concentration for PDE.
PDE enzyme is diluted in a standard reaction buffer (10 mM Tris-HCl pH 7.2, 10 mM MgCl2, 0.1% BSA, 0.05% NaN3) according to the titration curve. For PDE2 assay the reaction buffer is supplemented with 1 μM cGMP to fully activate the enzyme. 99 μl of diluted enzyme solution is added into each well in a flat bottom 96-well polystyrene plate and then ˜1 μl of test compound dissolved in 100% DMSO is added. The compounds are mixed and pre-incubated with the enzyme for 10 min at room temperature.
The FL-cNMP conversion reaction is initiated by addition of substrate (45 nM final). Enzyme and inhibitor mix (16 μl) and substrate solution (4 μl of 0.225 μM) are combined in a 384-well microtiter plate. The reaction is incubated in the dark at room temperature for 15 min. The reaction is halted by addition of 60 μl of binding reagent (1:400 dilution of IMAP beads in binding buffer supplemented with 1:1800 dilution of antifoam) to each well of the 384-well plate. The plate is incubated at room temperature for 1 hour to allow IMAP binding to proceed to completion, and then placed in an Envision multimode microplate reader (PerkinElmer, Shelton, Conn.) to measure the fluorescence polarization (Δmp).
A decrease in cAMP concentration, measured as decreased Amp, is indicative of inhibition of PDE activity. […] Test well values are normalized to control reactions run on the same plate (values converted to % of control). IC50 values are estimated using nonlinear regression software, fitting a four-parameter one-site dose-response model (XLFit; IDBS, Cambridge, Mass.). Bottom of curve is fixed at 0% of control.
The total fluorescence intensity of each sample well is measured to calculate the average and standard deviation. If the total fluorescence intensity of any sample well is not within the range of Average±3SD, the mp value of that particular well is discarded.

[2] = Pharmacokinetic study in mice (plasma and brain availability); format: in vivo; conditions: 10 mg/kg PO; for blood plasma ratio: brain/plasma, po, 10 mg/kg
Experimental: Pharmacokinetic Study in Mice
Mice are given a single oral dose of the compound of Example 22 (10 mg/kg, PO) and plasma and brain availability are measured (0.25-4 h) using HPLC and LC-MS using methods analogous to those described in Zhao et al., J. Chromatogr. B. Analyt. Technol. Biomed. Life Sci. (2005) 819(1):73-80 and Appels, N. M., et al., Rapid Commun. Mass Spec. 2005. 19(15): p. 2187-92.

[3] = test system: cGMP levels in the striatum; assay: Measurements of cGMP in mouse brain in vivo
Experimental: Measurements of cGMP in Mouse Brain in vivo:
Striatum are dissected from the mouse brains and assayed for levels of cGMP. Trichloroacetic acid (TCA) is added to tissue samples for a final concentration of 5% TCA and the tissue is immediately sonicated in solution and stored on ice. The sonicated sample is centrifuged at 15,000×g for 20 min at 4° C. to remove the precipitated protein. To extract the TCA, the sample is washed three times in water saturated ether. The samples are then dried under vacuum (Speedvac, Savant SPD111V) at room temperature and re-suspended in 100 μL EIA buffer. […] Each sample is tested in duplicate in precoated assay plates alongside the 8-point cGMP standard dilutions. In addition, blank, maximum binding (B0) and non-specific binding wells are included. To all wells containing 50 μL sample or standard, equal volumes of AChE-linked cGMP and cGMP antibody are added. The plate is incubated at 4° C. for 18 hours. The wells are then washed 5 times with wash buffer. […] Each data point is converted to % B/B0 (100*[(sample or standard OD−average non-specific binding)/(average B0−average non-specific binding)]). The standards are plotted and fit to a 4-parameter logistic equation (FIG. 1). The concentrations of the samples are interpolated from the standard curve using Microsoft Excel and GraphPad Prizm.

Question: With `COc1ccc(Cc2nn3c([C@@H](CCCc4ccccc4)[C@@H](C)O)nc(C)c3c(=O)[nH]2)cc1OC` [Bay 60-7550] as the molecule, how does the Cmax [1] read?
Answer: The Cmax was 3 ng/mL.

Question: What about the Tmax [1] of the same molecule?
Answer: Its Tmax is 0.25 h.

Question: With `CCCCOc1ccc(Cl)c(-n2nc(C)c3c(=O)[nH]c4cccnc4c32)c1` [Example 17, 1-(5-Butoxy-2-chlorophenyl)-3-methyl-1H-pyrazolo[4,3-c][1,5]naphthyridin-4(5H)-one] as the molecule, how does the pIC50 (r-hPDE2A) read?
Answer: Its pIC50 is 7.55.

Question: With `Cc1nn(-c2cc(Cl)ccc2Cl)c2c1c(=O)[nH]c1ccc(Cl)nc12` [Example 19, 8-Chloro-1-(2,5-dichlorophenyl)-3-methyl-1H-pyrazolo[4,3-c][1,5]naphthyridin-4(5H)-one] as the molecule, how does the pIC50 (r-hPDE2A) read?
Answer: The pIC50 was 7.14.

Question: With `CCCCOc1ccc(Cl)c(-n2nc(C)c3c(=O)[nH]c4ccc(Cl)nc4c32)c1` [Example 20, 1-(5-Butoxy-2-chlorophenyl)-8-chloro-3-methyl-1H-pyrazolo[4,3-c][1,5]naphthyridin-4(5H)-one] as the molecule, how does the pIC50 (r-hPDE2A) read?
Answer: Its pIC50 is 7.92.

Question: With `CCCCOc1ccc(Cl)c(-n2nc(C)c3c(=O)[nH]c4ccc(OC)nc4c32)c1` [Example 21, 1-(5-Butoxy-2-chlorophenyl)-8-methoxy-3-methyl-1H-pyrazolo[4,3-c][1,5]naphthyridin-4(5H)-one] as the molecule, how does the pIC50 (r-hPDE2A) read?
Answer: The pIC50 was 8.03.

Question: With `COc1ccc2[nH]c(=O)c3c(C)nn(-c4cc(OCC5CCC5)ccc4Cl)c3c2n1` [Example 22, 1-(2-Chloro-5-(cyclobutylmethoxy)phenyl)-8-methoxy-3-methyl-1H-pyrazolo[4,3-c][1,5]naphthyridin-4(5H)-one] as the molecule, how does the pIC50 (r-hPDE2A) read?
Answer: Its pIC50 is 8.23.

Question: And the brain access ([2]; 0.25-4 h, compared to Bay 60-7550)?
Answer: The brain access was “good brain access”.

Question: And the AUC ([2]; mouse, brain)?
Answer: Its AUC is 83 ng·h/mL.

Question: What about the AUC(0-t) ([2]; mouse, brain) of the same molecule?
Answer: Its AUC(0-t) is 50 ng·h/mL.

Question: And the Cmax ([2]; mouse, brain)?
Answer: The Cmax was 17 ng/mL.

Question: And the Tmax ([2]; mouse, brain)?
Answer: Its Tmax is 2 h.

Question: And the half-life ([2]; mouse, brain, read-out: E Half-life (converted))?
Answer: Its half-life is 2.4 h.

Question: And the blood plasma ratio ([2]; mouse, read-out: Blood/plasma Ratio of AUC (area))?
Answer: Its blood plasma ratio is 0.9.

Question: What about the blood plasma ratio ([2]; mouse, read-out: Blood/plasma Ratio of Cmax (obs)) of the same molecule?
Answer: The blood plasma ratio was 1.4.

Question: What about the blood plasma ratio ([2]; mouse, Blood/plasma Ratio of AUC (0-4 hr) (obs area)) of the same molecule?
Answer: Its blood plasma ratio is 1.4.

Question: What about the “cGMP levels in the striatum of mice” value ([3]; 3 mg/kg i.p., 15, 30 or 60 min, compared to Bay 60-7550 (3 mg/kg)) of the same molecule?
Answer: Its value is “increases cGMP levels”.

Question: What about the “brain access compared to Bay60-7550” value ([3]; inferred from striatal cGMP after 3 mg/kg i.p.) of the same molecule?
Answer: The value was “improvement in brain access”.
